From PMC5354587, “Ergosterone-coupled Triazol molecules trigger mitochondrial dysfunction, oxidative stress, and acidocalcisomal Ca^2+ release in Leishmania mexicana promastigotes” (Microbial Cell, 2015)

What was measured:
Assay type in all cases: cell-based
[1] = tested on: Leishmania mexicana promastigotes; assay: Mitochondrial membrane potential, Mitotracker Red CMXROS, flow cytometry; conditions: treatment up to 48 hours, flow cytometry
Description: In order to determine the energetic state of the mitochondrion after parasites treatment, the compound Mitotraker Red CMXROS was used. As described in the Materials and Methods section, parasites were treated for 6, 16, 24, and 48 hours with each molecule at its IC50, then incubated with Mitotraker Red CMXROS (50 nM) for 30 minutes under culture conditions, and finally analyzed by flow cytometry. […] Additionally, to rule out if Erg itself (the non-azole fraction of the conjugates) could be responsible for this hyperpolarization, parasites were treated with this compound and ΔΨmit was monitored for up to 48 hours by flow cytometry.
(§1) Mitotracker CMX Red(Invitrogen) was used to determine the mitochondrial membrane potential (Ψmit) of treated parasites. After 6, 16, 24, and 48 hours treatment, cells were incubated in culture medium with 50 nM Mitotracker CMX Red for 30 minutes at 26°C in the dark. Thereafter, parasites were washed twice with PBS, resuspended in 1 mL buffer, and analyzed using a cytometer (Beckman Coulter). Parasites incubated with valinomycin (500 nM for 30 minutes) were used as positive control. To evaluate the effect of ergosterone coupled molecules on the mitochondrial membrane potential immediately after molecule addition we used the fluorophore rhodamine-123, a mitochondrion-specific cationic dye, which distributes across the inner mitochondrial membranes strictly according to their membrane potential, as described before. Briefly, 1 x 10^7 parasites were washed twice with rhodamine 123 loading buffer (20 mM Tris-HCl, 130 mM KCl, 1 mM MgCl2, and 2 mM KH2PO4) and incubated with 20 μM rhodamine 123 for 45 minutes at 29°C under agitation. Samples were washed twice, resuspended in 500 μL of the same buffer, and transferred to a quartz cuvette. Fluorescence (ex 488 nm and em 530 nm) was registered in a Hitachi F-7000 Spectrofluorimeter. FCCP was used as control for mitochondrial membrane depolarization.

[2] = tested on: Leishmania mexicana promastigotes; assay: Mitochondrial membrane potential immediately after addition, rhodamine 123; conditions: Erg-GTr 1.4 μM or Erg-GTr2 2.3 μM
Description: As the Leishmania mitochondrion seems to be involved in [Ca^2+]cyt regulation and can also accumulate Ca^2+ [9], the effect of Erg-GTr and Erg-GTr2 was analyzed immediately after its addition to parasites preloaded with rhodamine 123.
as §1, with “Samples were washed twice, resuspended in 500 μL of the same buffer, and transferred to a quartz cuvette.” left out, “FCCP was used as control for mitochondrial membrane depolarization.” left out

[3] = tested on: Leishmania mexicana promastigotes; assay: Alkalinization of acidocalcisomes, acridine orange; conditions: Erg-GTr 1.4 μM or Erg-GTr2 2.4 μM; nigericin 2 μM as control
Excerpt: Leishmania can store Ca^2+ in different compartments like the endoplasmic reticulum, the mitochondrion, and the acidocalcisomes. The major Ca^2+ reservoir is represented by this last organelle. In order to analyze if the [Ca^2+]cyt increase is due to its release from acidocalcisomes, parasites were charged with acridine orange and assayed fluorimetrically. Since acridine orange accumulates in acidic compartments, it allows detection of alkalinization.
To evaluate the effect of ergosterone coupled molecules on the Ca^2+ reservoir organelle acidocalcisome, parasites were stained with acridine orange as described previously. Briefly, 1 x 10^7 parasites were washed twice with loading buffer (20 mM Tris-HCl, 130 mM KCl, 1 mM MgCl2, and 2 mM KH2PO4) and incubated for 5 minutes with acridine orange (5 μM). Samples were washed twice, resuspended in 500 μL of the same buffer, and transferred to a stirred quartz cuvette at 29°C. Fluorescence (ex 488 nm and em 530 nm) was registered in a Hitachi F-7000 Spectrofluorimeter. Nigericin was used as control for acidocalcisome alkalinization.

[4] = tested on: Leishmania mexicana promastigotes; assay: Transmission electron microscopy of treated parasites; conditions: 48 hours, TEM
Description: To analyze if changes observed after parasite treatment with Erg-GTr or Erg-GTr2 can be associated with morphological alterations, cells were prepared for transmission electron microscopy as described in materials and methods section.
Figure 5 FIGURE 5: Transmission electron microscopy (TEM) of Epon-embedded cells. Parasites were treated with 1.4 μM Erg-GTr, 2.3 μM Erg-GTr2 or DMSO (control cells), harvested after 48 hours and prepared for TEM. (A) The most obvious alterations in Erg-GTr-treated cells are as follows: increase of vacuolar structures containing cytoplasmic material (c, d, f, h), myelin-like structures (d, h), increase of lysosomes (d, e, g), and flagellar pocket containing some material (g). Note the usual appearance of mitochondria, nucleus and cytoplasmic content in control cells (a, b). Abbreviations used: lysosome (L); nucleus (N); flagellar pocket (FP); mitochondrion (M). Arrows and asterisk indicate autophagosomes and myelin-like structures, respectively. (B) Mitochondrion zoom in to show cristae. […] Bars represent 0.5 μ each.
For TEM, 10^8 parasites were fixed in 2% (vol/vol) glutaraldehyde in 0.2 M sodium cacodylate buffer containing 0.12 M sucrose for 1 h at 4°C. Thereafter samples were washed four times (10 min each) and stored overnight in sodium cacodylate buffer. Before dehydration in ethanol, cells were postfixed in osmium tetroxide (1.5%, wt/vol) and stained in 0.5% uranyl acetate. Samples were cleared in propylene oxide and embedded in Agar 100 as described by. Sections were stained in 5% (wt/vol) uranyl acetate and 0.4% (wt/vol) lead citrate.

SMILES: CC(C)C(C)C=CC(C)C1CCC2C3=CC(=NNC(=O)n4cnnc4)C4(O)CC(=O)CCC4(C)C3CCC21C (stereo not drawn) [Erg-GTr, [1,2,4]triazole-4-carboxylic acid [5-hydroxy-10,13-dimethyl-3-oxo-17-(1,4,5-trimethyl-hex-2-enyl)-1,2,3,4,5,9,10,11,12,13,14,15,16,17-tetradecahydro-cyclopenta[a]phenanthren-6-ylidene]-hydrazide]
- effect on inner mitochondrial membrane potential (ΔΨmit) [1]: hyperpolarize
- rhodamine 123 fluorescence (depolarization of mitochondrial membrane potential) [2]: slow fluorescence increase
- acridine orange fluorescence (acidocalcisome alkalinization) [3]: rapid fluorescence increase
- autophagy (ultrastructural changes) [4]: Induction of autophagy
- treated parasites showing increase in cristae number and size [4]: More than 50%
- number and size of mitochondrion cristae ([4]; compared with control): higher
